In patent US12029738B2, “Antiproliferative compounds and methods of use thereof” (Celgene Corporation, priority 2017, dated 2024):
Like-named read-outs stand apart in the source and are kept apart here.

How the values were obtained:
[1] = tested on: NCI-H929; assay: Cell proliferation assay (CTG, 120 h); type: cell-based; conditions: Homo sapiens
Method: (§1) Cell Culture Materials: Human multiple myeloma cell lines were purchased from the vendors and cultured at 37° C. with 5% CO2 in the media as indicated in Table 1. Lenalidomide and pomalidomide resistant cell lines were obtained by methods as generally described previously (Lopez-Girona et al Leukemia 2012; 26(11): 2335). All cell lines were kept in log phase, and cell density and viability were monitored by trypan blue exclusion using the Vi-cell XR cell viability analyzer (Beckman Coulter, Brea, CA).
(§2) Preparation of Solutions of Test Article: Compounds were plated into black 384-well plates (Corning Inc.) to a final DMSO volume of 0.1% assuming a maximal volume of 50 μL. A 10-point dose response starting at 10 μM with a 1:3 dilution was printed in duplicate by acoustic dispense using the EDC ATS-100 platform. Alternatively, the 10-point dose response starting at 10 μM with a 1:10 dilution, or starting at 100 nM with a 1:3 dilutions were used.
(§3) Cell Proliferation Assays: The effect of compounds on the proliferation/viability of the hematological cell lines (Table 1), was assessed after 120 h incubation using CTG (Promega), according to manufacturer's instructions. Hematological cell lines were dispensed into compound plates by a Multidrop Combi Reagent Dispenser (Thermo Scientific, Waltham, MA) at a concentration of 0.1×10^6 cells per mL in a 50 μL total volume. At 120 h, 25 μL per well of CTG was dispensed by a Multidrop Combi Reagent Dispenser and adenosine triphosphate (ATP) release by viable cells was measured as relative luminescence units after 30 minutes using the Envision platform.
(§4) Results. […] The MM cell lines selected for this study were lines sensitive and resistant to lenalidomide and/or pomalidomide (Table 1), two agents used in the clinic to treat myeloma patients. Proliferation was assessed using the CellTitre-Glo© assay. Results for cultures incubated with the compounds were normalized to results for control cultures for each cell line. The IC50 for inhibition of cell growth by the compounds was determined for each cell line using ActivityBase software.

[2] = tested on: OPM2-P10 (pomalidomide-resistant); assay: Cell proliferation assay (CTG, 120 h); type: cell-based; conditions: Homo sapiens, read-out: OPM-2.P10 120 h IC50
Method: as §1, §2, §3, §4

[3] = tested on: OPM2; assay: Cell proliferation assay (CTG, 120 h); type: cell-based; conditions: Homo sapiens, OPM-2
Method: as §1, §2, §3, §4

[4] = tested on: K562 cells; assay: Coculture of compound-treated IL-2-activated PBMCs with K562 cells; type: cell-based, human; conditions: for IC50: Homo sapiens, K562, IL-2-activated PBMCs treated 72 h, 4 h coculture, read-out: IC50 of compound-treated PBMCs for direct K562 cell killing
Method: Coculture Experiments with Peripheral Blood Mononuclear Cells and K562 Cells. Methods: Human Peripheral Blood Mononuclear Cell (PBMC) Preparation: PBMCs isolated from healthy donors were cultured in RPMI 1640 medium with 10% FBS at a density of 1×10^6 cells/mL.
Cell Culture: K562 cells were kept in log phase, and cell density and viability were monitored by trypan blue exclusion using the Vi-CELL® XR cell viability analyzer (Beckman Coulter, Brea, CA).
Assay Procedures: Freshly isolated human PBMCs were cultured with recombinant IL-2 at concentration of 20 units/mL for 72 h. Peripheral blood mononuclear cells were then spun down and re-suspended in fresh RPMI complete medium to 2×10^6 cells/mL. Cells were then treated with DMSO or compounds at the indicated concentrations and incubated for an additional 72 h. The PBMCs were then washed twice in fresh RPMI complete medium prior to coculture. K562 cells were re-suspended to a cell density of 1×10^6/mL and stained with 1 μM CellTrace CFSE according to manufacturer's instructions. The labeled K562 cells were then seeded into a 96-well round bottom plate at 1×10^5 cells/well. Peripheral blood mononuclear cells were then transferred into the same 96-well plate at a 1:15 ratio, in triplicate and incubated at 37° C. for 4 h. Specific target cell lysis by PBMC cells was measured using Annexin V-fluorescein isothiocyanate (FITC) and propidium iodide (PI) according to manufacturer's instructions and samples were run on the FACS Array scan. Non-labeled K562 cells, CellTrace CFSE-labeled K562 cells, and Annexin V-FITC- and PI labeled untreated K562 cells were included in each assay as controls.

[5] = tested on: H929-1051; assay: PBMC and MM cell treatment assay (single culture vs co-culture); type: cell-based, human; conditions: for IC50: Homo sapiens, PBMC, read-out: Immune-mediated Cell Killing IC50
Method: (§5) PBMC and MM Cell Treatment Assay Procedure. Ninety-six-well dishes were pre-coated with anti-CD3 antibody (OKT3, 3 μg/mL) and incubated at 4° C. overnight before the start of the experiment. Frozen PBMC donor cells were thawed at 37° C. for 2 minutes in RPMI medium with 10% FBS and cell counts and viability were measured on the Vi-CELL analyzer. Peripheral blood mononuclear cells were washed and diluted to 1×10^6 cells/mL and dispensed into the compound-treated plates in a total volume of 200 μL. Cells were incubated with compounds for 2 h before being transferred onto anti-CD3-coated plates and incubated for an additional 72 h. At the same time, MM cell lines (NCI-H929, H929-1051, OPM2, OPM2-P10) were diluted to a final concentration of 0.1×10^6 cells/mL and labeled with CellTrace CFSE according to manufacturer's instructions. Multiple myeloma cell lines were then dispensed into compound-treated plates at a total volume of 200 μL and incubated for 72 h. After 72 h, the PBMCs and MM cells were counted and transferred into a U-bottom 96-well plate at a final T:E ratio of 1:5. After 24 h coculture, specific target cell lysis by PBMC cells was measured using Annexin V-AF647 and 7-AAD according to manufacturer's instructions and samples were run on the Attune NxT Cytometer.
(§6) Because preincubation of immune cells with Compound 2 enhanced the targeting and lysing of MM cells, the effect of preincubation of MM cells with Compound 2 on their susceptibility to immune-mediated killing was also explored (FIG. 16A, FIG. 16B, FIG. 16C, and FIG. 16D, Table 12). Four MM cell lines and anti-CD3 antibody-activated PBMCs were separately preincubated with Compound 2, lenalidomide, or pomalidomide for 72 h. When anti-CD3 antibody-activated PBMCs and MM lines were both pretreated with Compound 2, lenalidomide, or pomalidomide, followed by co-culture, the effects on the PBMC-induced MM cell lysis were enhanced both in the potency and magnitude of the killing response. […] For the pomalidomide-resistant OPM2-P10 cell line, Compound 2 treatment of the MM cells enhanced the immune-mediated killing by ˜3000-fold (Table 12).

[6] = tested on: NCI-H929; assay: as above; type: cell-based, human; conditions: for IC50: Homo sapiens, NCI-H929, NCI-H929, read-out: Immune-mediated Cell Killing IC50
Method: as §5, §6

[7] = tested on: OPM2-P10; assay: as above; type: cell-based, human; conditions: for IC50: Homo sapiens, PBMC, read-out: Immune-mediated Cell Killing IC50
Method: as §5, §6

Structure (SMILES): N#Cc1ccc(N2CCN(Cc3ccc(COc4cccc5c4CN(C4CCC(=O)NC4=O)C5=O)cc3)CC2)c(F)c1 (racemic) [Compound 1, 4-(4-(4-(((2-(2,6-dioxopiperidin-3-yl)-1-oxoisoindolin-4-yl)oxy)methyl)benzyl)piperazin-1-yl)-3-fluorobenzonitrile]
- IC50 [1]: < 0.5 nM
- IC50 [2]: 19 nM
- IC50 [3]: < 0.5 nM

Structure (SMILES): N#Cc1ccc(N2CCN(Cc3ccc(COc4cccc5c4CN([C@H]4CCC(=O)NC4=O)C5=O)cc3)CC2)c(F)c1 [Compound 2, (S)-4-(4-(4-(((2-(2,6-dioxopiperidin-3-yl)-1-oxoisoindolin-4-yl)oxy)methyl)benzyl)piperazin-1-yl)-3-fluorobenzonitrile]
- IC50 [1]: 0.07 nM
- IC50 [2]: 4.3 nM
- IC50 [3]: 0.07 nM
- potency relative to lenalidomide-treated PBMCs ([4]; 50% direct K562 cell killing): ~2600 fold
- potency relative to pomalidomide-treated PBMCs ([4]; 50% direct K562 cell killing): ~600 fold
- IC50 [4]: 5900 nM
- enhancement of killing, co-culture versus single culture IC50 ([5]; H929-1051): ~6000 fold
- IC50 ([5]; H929-1051, Single culture): 575 nM
- IC50 [5]: 0.1 nM
- IC50 ([6]; Co-culture with PBMCs): 0.087 nM
- IC50 ([6]; Single culture): 581 nM
- enhancement of killing, co-culture versus single culture IC50 ([6]; NCI-H929): ~7000 fold
- enhancement of immune-mediated killing, co-culture versus single culture IC50 [7]: ~3000 fold
- IC50 ([7]; Co-culture with PBMCs): 3.1 nM
- IC50 ([7]; Single culture): > 10000 nM

Structure (SMILES): Nc1cccc2c1C(=O)N(C1CCC(=O)NC1=O)C2=O (stereo not shown) [Pomalidomide, pomalidomide]
- IC50 [4]: 4 nM
- IC50 ([5]; H929-1051, Co-culture with PBMCs): 71.3 nM
- IC50 ([5]; H929-1051, Single culture): > 10000 nM
- IC50 ([6]; Co-culture with PBMCs): 44.4 nM
- IC50 ([6]; Single culture): > 10000 nM
- IC50 ([7]; Co-culture with PBMCs): 1180 nM
- IC50 ([7]; Single culture): > 10000 nM
